Active and inactive are the calls of the source. The calls are words filed in the database; no cut-off is given here.
How the values were obtained:
[1] = biological target: T1, MAO-A (amine oxidase [flavin-containing] A) (Homo sapiens, UniProt P21397); experiment: Inhibition of N-terminal FLAG-tagged recombinant human MAO-A expressed in baculovirus infected Sf9 cells upto 10 uM preincubated for 15 mins followed by addition of luciferin derivative substrate measured after 1 hr by Luciferase Glo assay relative to control; details: probe luciferin derivative substrate, time 75 min
T1 sequence (P21397 whole entry): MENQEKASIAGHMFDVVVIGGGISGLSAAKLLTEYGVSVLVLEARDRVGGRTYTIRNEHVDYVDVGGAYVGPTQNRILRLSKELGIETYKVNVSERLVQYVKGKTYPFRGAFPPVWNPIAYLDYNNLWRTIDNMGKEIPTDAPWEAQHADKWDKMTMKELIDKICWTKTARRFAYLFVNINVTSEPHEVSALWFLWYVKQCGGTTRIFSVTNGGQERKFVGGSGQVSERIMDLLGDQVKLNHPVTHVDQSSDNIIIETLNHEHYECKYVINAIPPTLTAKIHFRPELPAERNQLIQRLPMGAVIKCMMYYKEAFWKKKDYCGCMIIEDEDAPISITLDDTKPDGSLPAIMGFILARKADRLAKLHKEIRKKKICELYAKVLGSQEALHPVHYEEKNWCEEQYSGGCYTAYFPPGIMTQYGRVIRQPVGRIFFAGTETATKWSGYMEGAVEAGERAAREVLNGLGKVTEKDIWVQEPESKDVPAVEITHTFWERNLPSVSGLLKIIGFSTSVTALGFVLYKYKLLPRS

[2] = biological target: T2, MAO-B (amine oxidase [flavin-containing] B) (Homo sapiens, UniProt P27338); experiment: Inhibition of N-terminal FLAG-tagged recombinant human MAO-B expressed in baculovirus infected Sf9 cells upto 10 uM preincubated for 15 mins followed by addition of luciferin derivative substrate measured after 1 hr by Luciferase Glo assay relative to control; details: probe luciferin derivative substrate, time 75 min
T2 sequence (P27338 whole entry): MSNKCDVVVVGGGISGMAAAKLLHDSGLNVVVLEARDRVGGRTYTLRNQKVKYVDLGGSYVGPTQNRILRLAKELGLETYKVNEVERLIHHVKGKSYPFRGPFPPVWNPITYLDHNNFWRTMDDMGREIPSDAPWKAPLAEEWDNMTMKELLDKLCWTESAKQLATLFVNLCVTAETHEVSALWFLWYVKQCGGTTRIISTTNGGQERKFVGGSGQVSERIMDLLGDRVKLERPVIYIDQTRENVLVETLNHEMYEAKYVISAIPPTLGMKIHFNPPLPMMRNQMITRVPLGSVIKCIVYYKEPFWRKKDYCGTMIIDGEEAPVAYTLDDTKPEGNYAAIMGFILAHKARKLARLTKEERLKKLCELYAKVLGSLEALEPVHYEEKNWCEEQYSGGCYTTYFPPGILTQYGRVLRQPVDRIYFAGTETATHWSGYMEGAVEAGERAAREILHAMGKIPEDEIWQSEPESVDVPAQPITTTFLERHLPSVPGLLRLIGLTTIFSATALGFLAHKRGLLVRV

MOLM-13 [3] = experiment: Cytotoxicity against human MOLM-13 cells incubated for 7 days by CCK8 assay; details: MOLM-13, 168 h
MV4-11 [4] = experiment: Cytotoxicity against human MV4-11 cells incubated for 7 days by CCK8 assay; details: MV4-11, 168 h
MV4-11 [5] = experiment: Anti-cancer activity against human MV4-11 cells assessed as reduction in HoxA9 mRNA level upto 100 uM by qRT-PCR analysis; assay type: functional, cell-based
MV4-11 [6] = experiment: Anti-cancer activity against human MV4-11 cells assessed as reduction in Meis1 mRNA level upto 100 uM by qRT-PCR analysis; assay type: functional, cell-based
MOLM-13 [7] = experiment: Anti-cancer activity against human MOLM-13 cells assessed as reduction in HoxA9 mRNA level upto 100 uM by qRT-PCR analysis relative to control; assay type: functional; design: scale not given: the % may be the effect or the level left; details: up to 100 µM
MOLM-13 [8] = experiment: Anti-cancer activity against human MOLM-13 cells assessed as reduction in Meis1 mRNA level upto 100 uM by qRT-PCR analysis relative to control; assay type: functional; design: scale not given: the % may be the effect or the level left; details: up to 100 µM
MOLM-13 [9] = experiment: Induction of cell differentiation in human MOLM-13 cells assessed as increase in CD11b level upto 400 uM incubated for 7 days […]; assay type: functional, cell-based; details: time 7.0 day
MV4-11 [10] = experiment: Induction of cell differentiation in human MV4-11 cells assessed as increase in CD11b level upto 400 uM incubated for 7 days […]; assay type: functional, cell-based; details: time 7.0 day
MOLM-13 [11] = experiment: Induction of cell differentiation in human MOLM-13 cells assessed as CD11b level at 10 uM incubated for 3 days by Annexin V staining based flow cytometry (reference value: 13.77 %); assay type: functional; details: time 3 day
MOLM-13 [12] = experiment: Induction of cell differentiation in human MOLM-13 cells assessed as CD11b level at 30 uM incubated for 3 days by Annexin V staining based flow cytometry (reference value: 13.77 %); assay type: functional; details: time 3 day
MOLM-13 [13] = experiment: Induction of cell differentiation in human MOLM-13 cells assessed as CD11b level at 100 uM incubated for 3 days by Annexin V staining based flow cytometry (reference value: 13.77 %); assay type: functional; details: time 3 day
MV4-11 [14] = experiment: Induction of cell differentiation in human MV4-11 cells assessed as CD11b level at 10 uM incubated for 3 days by Annexin V staining based flow cytometry (reference value: 8.58 %); assay type: functional; details: time 3 day
MV4-11 [15] = experiment: Induction of cell differentiation in human MV4-11 cells assessed as CD11b level at 30 uM incubated for 3 days by Annexin V staining based flow cytometry (reference value: 8.58 %); assay type: functional; details: time 3 day
MV4-11 [16] = experiment: Induction of cell differentiation in human MV4-11 cells assessed as CD11b level at 100 uM incubated for 3 days by Annexin V staining based flow cytometry (reference value: 8.58 %); assay type: functional; details: time 3 day
MOLM-13 [17] = experiment: Induction of cell differentiation in human MOLM-13 cells assessed as increase in CD14 level upto 100 uM incubated for 3 days by Annexin V staining based flow cytometry; assay type: functional; details: time 3.0 day
MV4-11 [18] = experiment: Antitumor activity against human MV4-11 cells xenografted in NOD-SCID mouse assessed as decrease in leukemic cells in blood at 50 mg/kg, sc measured after 33 days relative to control; assay type: functional; design: scale not given: the % may be the effect or the level left; details: time 33 day
MV4-11 [19] = experiment: Induction of cell differentiation in human MV4-11 cells assessed as increase in CD14 level upto 100 uM incubated for 3 days by Annexin V staining based flow cytometry; assay type: functional; details: time 3.0 day
MOLM-13 [20] = experiment: Induction of apoptosis in human MOLM-13 cells assessed as viable cells at 10 uM incubated for 3 days by Annexin V staining based flow cytometry (reference value: 90.54 %); assay type: functional; details: MOLM-13, 72 h, time 3 day, read-out: Activity
MOLM-13 [21] = experiment: Induction of apoptosis in human MOLM-13 cells assessed as early apoptotic cells at 10 uM incubated for 3 days by Annexin V staining based flow cytometry (reference value: 4.94 %); assay type: functional; details: time 3 day
MOLM-13 [22] = experiment: Induction of apoptosis in human MOLM-13 cells assessed as late apoptotic cells at 10 uM incubated for 3 days by Annexin V staining based flow cytometry (reference value: 3.29 %); assay type: functional; details: time 3 day
MOLM-13 [23] = experiment: Induction of apoptosis in human MOLM-13 cells assessed as necrotic cells at 10 uM incubated for 3 days by Annexin V staining based flow cytometry (reference value: 1.23 %); assay type: functional; details: time 3 day
MOLM-13 [24] = experiment: Induction of apoptosis in human MOLM-13 cells assessed as viable cells at 30 uM incubated for 3 days by Annexin V staining based flow cytometry (reference value: 90.54 %); assay type: functional; details: MOLM-13, 72 h, time 3 day, read-out: Activity
MOLM-13 [25] = experiment: Induction of apoptosis in human MOLM-13 cells assessed as early apoptotic cells at 30 uM incubated for 3 days by Annexin V staining based flow cytometry (reference value: 4.94 %); assay type: functional; details: time 3 day
MOLM-13 [26] = experiment: Induction of apoptosis in human MOLM-13 cells assessed as late apoptotic cells at 30 uM incubated for 3 days by Annexin V staining based flow cytometry (reference value: 3.29 %); assay type: functional; details: time 3 day
MOLM-13 [27] = experiment: Induction of apoptosis in human MOLM-13 cells assessed as necrotic cells at 30 uM incubated for 3 days by Annexin V staining based flow cytometry (reference value: 1.23 %); assay type: functional; details: time 3 day
MOLM-13 [28] = experiment: Induction of apoptosis in human MOLM-13 cells assessed as viable cells at 100 uM incubated for 3 days by Annexin V staining based flow cytometry (reference value: 90.54 %); assay type: functional; details: MOLM-13, 72 h, time 3 day, read-out: Activity

`O=C(O)C(F)(F)F.O=[N+]([O-])c1ccc(C2NCCc3cc(O)c(O)cc32)cc1` (stereo not drawn) gave an inhibition at 1 h, up to 10 µM [1] of under 30%, an inhibition at 1 h, up to 10 µM [2] of under 30% and an IC50 (MOLM-13 [3]) of 83 µM. The IC50 (MV4-11 [4]) was 42 µM, the Activity (MV4-11 [5]) was “Active” and the Activity (MV4-11 [6]) was “Active”. For the same molecule, the Activity (MOLM-13 [7]) was about 70%, the Activity (MOLM-13 [8]) was about 60% and the Activity (MOLM-13 [9]) was “Active”. The Activity (MV4-11 [10]) was “Active”, the Activity (MOLM-13 [11]) was 29.35% and the Activity (MOLM-13 [12]) was 90.6%. The Activity (MOLM-13 [13]) was 93.75%, the Activity (MV4-11 [14]) was 14.39% and the Activity (MV4-11 [15]) was 34.78%. The Activity (MV4-11 [16]) was 69.19%, the Activity (MOLM-13 [17]) was “Active” and the Activity (MV4-11 [18]) was 35%. For the same molecule, the Activity (MV4-11 [19]) was “Active”, the viability at 10 µM (MOLM-13 [20]) was 76.6% and the Activity (MOLM-13 [21]) was 7.17%. For the same molecule, the Activity (MOLM-13 [22]) was 9.88%, the Activity (MOLM-13 [23]) was 6.32% and the viability at 30 µM (MOLM-13 [24]) was 61.5%. The Activity (MOLM-13 [25]) was 7.55%, the Activity (MOLM-13 [26]) was 15.99% and the Activity (MOLM-13 [27]) was 14.95%. It also gave a viability at 100 µM (MOLM-13 [28]) of 56%.

Reference: ChEMBL document CHEMBL5620367, “Discovery of new tetrahydroisoquinolines as potent and selective LSD1 inhibitors for the treatment of MLL-rearranged leukemia” (Eur J Med Chem, 2023)
